Here are results for 3 molecules from patent US5935945A, “Methods of treating or preventing cardiac arrhythmia” (Merck & Co., Inc., priority 1997, dated 1999).

SMILES strings stand for the structures.

The target of test [1] is T1, IKr (rapidly activating delayed rectifier K^+ current) (Cavia porcellus, UniProt O08703).
T1 construct: Guinea pig ventricular myocytes were isolated; from tissue; host or cells: isolated guinea pig ventricular myocytes
T1 sequence (O08703 1-1294): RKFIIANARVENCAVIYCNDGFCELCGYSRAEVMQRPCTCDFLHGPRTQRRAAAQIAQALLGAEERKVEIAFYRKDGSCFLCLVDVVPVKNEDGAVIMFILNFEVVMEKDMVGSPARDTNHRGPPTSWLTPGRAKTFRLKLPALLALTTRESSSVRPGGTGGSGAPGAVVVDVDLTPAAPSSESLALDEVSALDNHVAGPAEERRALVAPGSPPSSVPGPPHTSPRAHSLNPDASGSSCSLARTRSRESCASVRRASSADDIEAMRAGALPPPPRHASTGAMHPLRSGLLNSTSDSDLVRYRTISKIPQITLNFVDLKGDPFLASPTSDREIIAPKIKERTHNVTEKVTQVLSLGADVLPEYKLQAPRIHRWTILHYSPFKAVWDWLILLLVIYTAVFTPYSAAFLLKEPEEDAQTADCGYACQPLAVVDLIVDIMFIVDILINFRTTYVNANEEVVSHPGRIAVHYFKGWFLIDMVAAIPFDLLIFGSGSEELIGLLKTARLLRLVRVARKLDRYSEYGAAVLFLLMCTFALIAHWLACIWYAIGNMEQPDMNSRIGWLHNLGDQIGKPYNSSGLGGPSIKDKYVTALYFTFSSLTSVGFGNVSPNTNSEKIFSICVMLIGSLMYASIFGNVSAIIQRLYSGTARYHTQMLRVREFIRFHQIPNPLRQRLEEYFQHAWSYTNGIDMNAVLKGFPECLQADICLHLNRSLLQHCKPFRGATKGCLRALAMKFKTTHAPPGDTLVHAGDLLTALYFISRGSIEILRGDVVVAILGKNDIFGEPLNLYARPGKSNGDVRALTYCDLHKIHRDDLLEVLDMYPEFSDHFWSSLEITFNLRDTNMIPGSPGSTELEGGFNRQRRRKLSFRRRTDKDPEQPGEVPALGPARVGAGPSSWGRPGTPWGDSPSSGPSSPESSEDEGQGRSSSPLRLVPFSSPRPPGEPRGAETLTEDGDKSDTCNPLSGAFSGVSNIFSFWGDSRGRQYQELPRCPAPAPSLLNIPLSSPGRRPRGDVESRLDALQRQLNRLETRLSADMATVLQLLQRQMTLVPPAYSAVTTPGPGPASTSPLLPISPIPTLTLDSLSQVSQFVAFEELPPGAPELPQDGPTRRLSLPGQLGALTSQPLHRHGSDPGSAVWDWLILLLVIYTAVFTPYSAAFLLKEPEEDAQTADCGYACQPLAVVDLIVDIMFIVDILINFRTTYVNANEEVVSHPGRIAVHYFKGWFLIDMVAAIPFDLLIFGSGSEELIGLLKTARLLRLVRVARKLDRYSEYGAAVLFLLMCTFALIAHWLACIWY
The test is described as follows: Voltage-clamp measurement of IKr in guinea pig ventricular myocytes. It is filed as cell-based. The conditions noted are these: read-out: % Block (Guinea Pig Ventricle) IKr. On the procedure:
(§1) Guinea pig ventricular myocytes were isolated using a modification of the procedure described by Mitra et al., Am. J. Physiol. 249:H1056-60 (1985). Excised hearts were perfused through the aorta (retrograde fashion) at a rate of 10 ml/min with oxygenated, warmed (37° C.) solutions described below. The heart was initially perfused for 7 minutes with a Tyrode's solution containing, (in mM): 132 NaCl, 4 KCl, 1.2 MgCl2, 10 HEPES, 5 glucose, pH=7.2. The heart was then perfused with the same nominally Ca^2+ -free solution containing 150 units/ml Type II collagenase (Worthington) and 0.5 units/ml Type XIV protease (Sigma) for 8 minutes. This perfusate was followed by a Tyrode's solution containing 0.2 mM CaCl2 (without enzymes) for 5 minutes. The digested ventricles were cut into small pieces and gently shaken until cells were visibly dispersed. The cells were stored at room temperature until use, within 8 hours after isolation.
(§2) The suction microelectrode technique described by Giles, W. R. and Shibata, E. F., "Voltage clamp of bull-frog cardiac pacemaker cells: a quantitative analysis of potassium currents", J. Physiol. 368:265-292 (1985) was used to voltage clamp the cells. Microelectrodes were made by using a two stage puller from square bore (1.0 mm o.d.) borosilicate capillary tubing. Pipettes were filled with 0.5 M K gluconate, 25 mM KCl and 5 mM K2 ATP. The electrodes had resistances of 3 to 7 M.OMEGA. when filled with this solution. After establishing whole-cell recording mode, negative pressure was maintained on the pipette using a 1 ml gas-tight syringe attached via air tight tubing to the suction port of the microelectrode holder. This minimized dialysis of the cell with the pipette solution.
(§3) To record K^+ currents, the cells were bathed in a Ca^2+ -free Tyrode's solution containing […]. […] To record Ca^2+ currents, the cells were bathed in Tyrode's solution containing 1.8 mM Ca^2+ without nisoldipine. The cell chamber was superfused with solutions at a rate of 1-2 ml/minute, while maintaining the temperature at 35±1° C. A List EPC-7 clamp amplifier was used to voltage clamp the isolated cells. […] (Sanguinetti M. C. and Jurkiewicz, N. K., "Two components of cardiac delayed rectifier K^+ current: Differential sensitivity to block by Class III antiarrhythmic agents", J. Gen Physiol 1990; 96:194-214.) Data was analyzed as % block from control membrane currents.
(§4) Nisoldipine was prepared as a 4 mM stock solution in polyethylene glycol 200. […] At the final concentrations used neither polyethylene glycol 200 nor dimethyl sulfoxide had any effect on any of the measured membrane currents.
(§5) Selectivity for block of cardiac K^+ channels, IK1, IKr, and IKs was determined as previously described in guinea pig ventricular myocytes (U.S. Pat. No. 5,428,031).

The subject of test [2] is IK1 (inward rectifier K^+ current). The test is described as follows: Voltage-clamp measurement of IK1 in guinea pig ventricular myocytes. It is filed as cell-based. On the procedure:
as §1, §2, §3, §4, §5

On to `COc1ccc(-n2nc(Sc3ccc(Cl)cc3)c(C)c(C#N)c2=O)cc1` [Compound A, 6-(4-Chlorophenylthio)-2-(4-methoxyphenyl)-5-methyl-3-oxo-2,3-dihydropyridazine-4-carbonitrile], for which the inhibition at 10 µM in test [1] (@ 10 μM) came out at 29%. For the same molecule, the “% Block (Guinea Pig Ventricle) IK1” value in test [2] (@ 10 μM) was 6%.
Turning to `COc1ccc(-n2nc(Sc3ccc(C)cc3)c(C)c(C#N)c2=O)cc1` [Compound B], in test [1], the inhibition at 3 µM was found to be 4.2%. For the same molecule, in test [2] (@ 3 μM), the “% Block (Guinea Pig Ventricle) IK1” value is 4.4%.
For `Cc1cc(C)c(CP(=O)(c2ccccc2)c2ccccc2)c(-c2ccc(F)c(C)c2)c1` [Compound C, 2-(Diphenylphosphinylmethyl)-4'-fluoro-3,5,3'-trimethyl-biphenyl], in test [1], the inhibition at 3 µM was 11.1%. For the same molecule, the “% Block (Guinea Pig Ventricle) IK1” value in test [2] (@ 3 μM) is given as 15.1%.
